Measured values taken from ChEMBL document CHEMBL5143754, “Novel Bcl-2 Inhibitors Selectively Disrupt the Autophagy-Specific Bcl-2-Beclin 1 Protein-Protein Interaction” (ACS Med Chem Lett, 2022).

Key:
[1] = target: T1, Apoptosis regulator Bcl-2 (Homo sapiens, UniProt P10415); assay: Inhibition of biotin-linker-Beclin 1 BH3 peptide binding to human C-terminal 6His-tagged Bcl-2 (1 to 218 residues) expressed in Escherichia coli BL21 Star (DE3) pLysS measured after 3 hrs by AlphaLISA assay
[2] = target: T1, Apoptosis regulator Bcl-2; assay: Inhibition of biotin-linker-Bax BH3 peptide binding to human C-terminal 6His-tagged Bcl-2 (1 to 218 residues) expressed in Escherichia coli BL21 Star (DE3) pLysS measured after 3 hrs by AlphaLISA assay
[3] = Half life in ICR/CD-1 mouse liver microsomes at 2 uM preincubated for 5 mins followed by NADPH regenerating system addition by LC-MS/MS analysis; format: ADME, Microsome

T1 sequence (P10415 whole entry, the tested form may be a part): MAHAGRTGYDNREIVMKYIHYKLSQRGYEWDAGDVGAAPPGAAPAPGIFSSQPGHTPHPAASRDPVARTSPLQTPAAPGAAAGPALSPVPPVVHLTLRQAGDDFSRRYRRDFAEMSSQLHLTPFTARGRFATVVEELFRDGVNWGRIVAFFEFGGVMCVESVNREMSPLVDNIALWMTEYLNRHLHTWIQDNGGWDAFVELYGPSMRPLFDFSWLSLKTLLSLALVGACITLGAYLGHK

CC(C)(C)NC(=O)Nc1ccc(C2=NN(C(=O)c3ccc(Br)cc3)C(c3ccccc3)C2)cc1 (racemic)
IC50 [1]: 9.22 µM

CC(C)(C)OC(=O)Nc1cccc(C2=NN(C(=O)c3ccc(Br)cc3)C(c3ccccc3)C2)c1 (racemic)
IC50 [1]: 11.1 µM

CC(C)OC(=O)Nc1ccc(C2=NN(C(=O)c3ccc(Br)cc3)C(c3ccccc3)C2)cc1 (racemic)
IC50 [1]: 0.0044 µM | IC50 [2]: 0.881 µM | half-life at 2 µM [3]: 120 min

COC(=O)Nc1ccc(C2=NN(C(=O)c3ccc(Br)cc3)C(c3ccccc3)C2)cc1 (racemic)
IC50 [1]: 2.1 µM

CC(C)(C)OC(=O)Nc1ccc(C2=NN(C(=O)c3ccc(Br)cc3)C(c3ccco3)C2)cc1 (racemic)
IC50 [1]: 1.26 µM

CC(C)(C)OC(=O)Nc1ccc(C2=NN(C(=O)c3ccc(Br)cc3)C(c3ccccn3)C2)cc1 (racemic)
IC50 [1]: 0.65 µM

CS(=O)(=O)Nc1ccc(C2=NN(C(=O)c3ccc(Cl)cc3)C(c3ccco3)C2)cc1 (racemic)
IC50 [1]: 2.72 µM

CC(C)(C)OC(=O)Nc1ccc(C2=NN(C(=O)c3cccnc3)C(c3ccccc3)C2)cc1 (racemic)
IC50 [1]: 14.5 µM

C=CCOC(=O)Nc1ccc(C2=NN(C(=O)c3ccc(Br)cc3)C(c3ccccc3)C2)cc1 (racemic)
IC50 [1]: 0.0318 µM | IC50 [2]: 8.83 µM

Cc1ccc(C(=O)N2N=C(c3ccc(NC(=O)OC(C)(C)C)cc3)CC2c2ccco2)cc1 (racemic)
IC50 [1]: 3.29 µM

C#CCCOC(=O)Nc1ccc(C2=NN(C(=O)c3ccc(Br)cc3)C(c3ccccc3)C2)cc1 (racemic)
IC50 [1]: 0.065 µM

CC(C)COC(=O)Nc1ccc(C2=NN(C(=O)c3ccc(Br)cc3)C(c3ccccc3)C2)cc1 (racemic)
IC50 [1]: 0.164 µM

CC(C)(C)OC(=O)Nc1ccc(C2=NN(C(=O)c3ccc(Br)cc3)C(c3ccccc3)C2)cn1 (racemic)
IC50 [1]: 0.309 µM

CC(C)(C)OC(=O)Nc1ccc(C2=NN(C(=O)c3ccc(Br)cc3)C(c3cncs3)C2)cc1 (racemic)
IC50 [1]: 4.36 µM

CC(C)OC(=O)Nc1ccc(C2=NN(C(=O)c3ccc(Br)cc3)C(c3ccccc3)C2C)cn1 (racemic)
IC50 [1]: 0.002 µM | IC50 [2]: 0.157 µM

Cc1ccc(C(=O)N2N=C(c3ccc(NS(C)(=O)=O)cc3)CC2c2ccco2)cc1 (racemic)
IC50 [1]: 15.9 µM | IC50 [2]: > 10 µM | half-life at 2 µM [3]: 2.9 min

COc1ccc(C(=O)N2N=C(c3ccc(NS(C)(=O)=O)cc3)CC2c2ccco2)cc1 (racemic)
IC50 [1]: 10.1 µM

CC(C)OC(=O)c1ccc(C2=NN(C(=O)c3ccc(Br)cc3)C(c3ccccc3)C2)cc1 (racemic)
IC50 [1]: 0.11 µM | IC50 [2]: 4.36 µM

CC(C)(C)OC(=O)Nc1ccc(C2=NN(C(=O)c3ccc(Br)cc3)C(c3nccs3)C2)cc1 (racemic)
IC50 [1]: 1.61 µM

CN(C)C(=O)c1ccc(C2=NN(C(=O)c3ccc(Br)cc3)C(c3ccccc3)C2)cc1 (racemic)
IC50 [1]: 5.91 µM

CC(C)(C)OC(=O)Nc1ccc(C2=NN(C(=O)c3ccc([N+](=O)[O-])cc3)C(c3ccccc3)C2)cc1 (racemic)
IC50 [1]: 0.439 µM | half-life at 2 µM [3]: 120 min

COC(=O)c1ccc(C2=NN(C(=O)c3ccc(Br)cc3)C(c3ccccc3)C2)cc1 (racemic)
IC50 [1]: 1.64 µM

CC(C)(C)OC(=O)Nc1ccc(C2=NN(C(=O)c3ccc(Br)cc3)C(c3ccccc3)C2)nc1 (racemic)
IC50 [1]: 0.372 µM

CC(C)(C)OC(=O)Nc1ccc(C2=NN(C(=O)c3ccc(Br)cc3)C(c3ccccc3)C2)cc1 (racemic)
IC50 [1]: 0.262 µM | half-life at 2 µM [3]: 120 min

CS(=O)(=O)Nc1ccc(C2=NN(C(=O)c3ccc(C#N)cc3)C(c3ccco3)C2)cc1 (racemic)
IC50 [1]: 7.44 µM

O=C(Nc1ccc(C2=NN(C(=O)c3ccc(Br)cc3)C(c3ccccc3)C2)cc1)OC1CC1 (racemic)
IC50 [1]: 0.0441 µM | IC50 [2]: 15.1 µM

CC1C(c2ccc(NC(=O)OC(C)(C)C)cc2)=NN(C(=O)c2ccc(Br)cc2)C1c1ccccc1 (racemic)
IC50 [1]: 0.0274 µM

CS(=O)(=O)Nc1ccc(C2=NN(C(=O)c3ccc(Br)cc3)C(c3ccco3)C2)cc1 (racemic)
IC50 [1]: 2.47 µM | half-life at 2 µM [3]: 2.9 min

CC(C)(C)OC(=O)Nc1ccc(C2=NN(C(=O)c3ccc(Br)cc3)C(c3ccoc3)C2)cc1 (racemic)
IC50 [1]: 3.82 µM

CC(C)C(=O)Oc1ccc(C2=NN(C(=O)c3ccc(Br)cc3)C(c3ccccc3)C2)cc1 (racemic)
IC50 [1]: 5.45 µM

CC(C)(C)OC(=O)Nc1ccc(C2=NN(C(=O)c3ccc(Br)cc3)C(c3ccccc3)C2c2ccccc2)cc1 (racemic)
IC50 [1]: 0.172 µM

CS(=O)(=O)Nc1ccc(C2=NN(C(=O)c3ccc(C(F)(F)F)cc3)C(c3ccco3)C2)cc1 (racemic)
IC50 [1]: 2.88 µM | half-life at 2 µM [3]: 2.9 min

CCOC(=O)Nc1ccc(C2=NN(C(=O)c3ccc(Br)cc3)C(c3ccccc3)C2)cc1 (racemic)
IC50 [1]: 0.0328 µM | IC50 [2]: 6.62 µM

CS(=O)(=O)Nc1ccc(C2=NN(C(=O)c3ccc([N+](=O)[O-])cc3)C(c3ccco3)C2)cc1 (racemic)
IC50 [1]: 1.97 µM | half-life at 2 µM [3]: 2.9 min

CS(=O)(=O)Nc1ccc(C2=NN(C(=O)c3ccc(F)cc3)C(c3ccco3)C2)cc1 (racemic)
IC50 [1]: 12.7 µM

CC(C)(C)OC(=O)Nc1ccc(C2=NN(C(=O)c3ccc(Br)cc3)C(c3cccnc3)C2)cc1 (racemic)
IC50 [1]: 1.63 µM

CC(C)(C)OC(=O)Nc1ccc(C2=NN(C(=O)c3ccc(Br)cc3)C(c3ccncc3)C2)cc1 (racemic)
IC50 [1]: 2.78 µM

Cc1ccc(C(=O)N2N=C(c3ccc(NS(C)(=O)=O)cc3)CC2c2ccccc2Br)cc1 (configuration not stated)
half-life at 2 µM [3]: 2.9 min
